Source: patent EP0185623A1, “Milbemycin derivatives for combating insects and parasites” (CIBA-GEIGY AG, priority 1984, dated 1986)

How the values were obtained:
[1] = test system: L1-Larven von Lucilia sericata; experiment: B-3 action against L1 larvae in larval culture medium; format: in vivo; conditions: 100 ppm, after 4 days
Method: B-3. Wirkung gegen L1-Larven von Lucilia sericata
1 ml einer wässrigen Suspension der zu prüfenden Aktivsubstanz wird so mit 3 ml eines speziellen Larvenzuchtmediums bei ca. 50°C vermischt, dass ein Homogenisat von wahlweise 250 ppm oder 125 ppm Wirkstoffgehalt entsteht. In jede Reagenzglas-Probe werden ca. 30 Lucilia-Larven (L1) eingesetzt. Nach 4 Tagen wird die Mortalitätsrate bestimmt. Die Verbindungen der Formel 1 erzielten mit 250 ppm, die Verbindungen Nr. 1.1, 1.3, 1.15, 1.22, 1.27, 1.35, 1.37, 1.38 und 1.43 bereits bei 100 ppm eine Wirkung von 100 %.

[2] = test system: Boophilus microplus (Biarra-Stamm); experiment: B-4 acaricidal action, injection into engorged female ticks; format: in vivo; conditions: dose per tick at which 9 of 10 females lay non-hatching eggs after 30 days
Method: B-4. Akarizide Wirkung gegen Boophilus microplus (Biarra-Stamm
Auf einer PVC-Platte wird waagrecht ein Klebstreifen so befestigt, das darauf 10 mit Blut vollgesogene Zecken-Weibchen von Boophilus microplus (Biarra-Stamm) nebeneinander in einer Reihe mit dem Rücken aufgeklebt werden können. Jeder Zecke wird mit einer Injektionsnadel 1 µl einer Flüssigkeit injiziert, die eine 1:1-Mischung von Polyethylenglykol und Aceton darstellt und in der als bestimmte Wirkstoffmenge […] pro Zecke gelöst ist. Kontrolltiere erhalten eine wirkstofffreie Injektion. Nach der Behandlung werden die Tiere unter Normalbedingungen in einem Insektarium bei ca. 28°C und 80 % relativer Luftfeuchtigkeit gehalten, bis die Eiablage erfolgt und die Larven aus den Eiern der Kontrolltiere geschlüpft sind.
Die Aktivität einer geprüften Substanz wird mit der IR90 bestimmt, d.h. es wird jene Wirkstoffdosis ermittelt, bei der noch nach 30 Tagen 9 von 10 Zeckenweibchen (= 90 %) Eier ablegen, die nicht schlupffähig sind.

[3] = test system: Haemonchus contortus und Trychostrongylus colubriformis; experiment: B-5 test on sheep infected with nematodes, worm egg count in faeces; format: in vivo, Schafe; conditions: single dose
Method: B-5. Versuch an mit Nematoden (Haemonchus concortus und Trichostrongylus colubriformis) infizierten Schafen
Der Wirkstoff wird als Suspension formuliert mit einer Magensonde oder durch Injektion in den Pansen eines Schafes gegeben, das mit Haemonchus contortus und Trychostrongylus colubriformis künstlich infiziert worden ist. Pro Dosis werden 1 bis 3 Tiere verwendet. Jedes Schaf wird nur einmal mit einer einzigen Dosis behandelt, und zwar wahlweise mit 2 mg oder 1 mg/kg Körpergewicht. Die Evaluierung erfolgt durch Vergleich der Anzahl der vor und nach Behandlung im Kot der Schafe ausgeschiedenen Wurmeier.
Gleichzeitig und gleichartig infizierte aber unbehandelte Schafe dienen als Kontrolle. Schafe, die mit einer der Verbindungen der Formel I bei 1 mg/kg behandelt wurden, zeigten im Vergleich zu unbehandelten, aber infizierten Vergleichsgruppen keinen Nematodenbefall (= komplette Reduktion der Wurmeier im Kot). […] Schafe, die mit 0,1 mg/kg Köpergewicht der Verbindung Nr. 1.1 (A) und der Verbindung Nr. 1.15 (B) behandelt wurden, zeigten im Vergleich zur Kontrolle eine 77%ige (A) und eine 97Xige (B) Wirkung, während 5-0-(2,3,4,6-Tetra-0-acetyl-1-0-glucanopyranosyl)-milbemycin A3 bei dieser Konzentration unwirksam war.

Substance	Wirkung (Mortalitätsrate) [1] [%]	IR90 [2]	Wirkung im Vergleich zur Kontrolle ([3]; 0,1 mg/kg Körpergewicht)	Wirkung (Reduktion der Wurmeier im Kot) ([3]; 2 mg/kg)
5-0-(1-0-Galactopyranosyl)-milbemycin D [1.38]	100	0,5 µg	–	–
5-0-(2,3,4,6-Tetra-0-acetyl-1-0-glucanopyranosyl)-milbemycin A3 [Tetraacetylglucopyranosyl-milbemycin A3]	–	–	unwirksam	annähernd wirkungslos
